Here are results for five compounds from patent US9545410B2, “Tyrosine kinase inhibitors as anti-kinetoplastid agents” (UNIVERSITY OF GEORGIA RESEARCH FOUNDATION, INC., priority 2006, dated 2017).

Read-outs that look alike come from different tables or passages of the source.

For series [1], the system named is blood stream T. brucei strain 427. Briefly: Cultured bloodstream T. brucei growth/viability, parasites counted with a haemocytometer. The settings on record: for concentration at which all parasites were killed / no parasites survived: blood stream T. brucei strain 427, 37° C. for 40 hours. In kind it is cell-based, Trypanosoma brucei. On the procedure:
Cultured trypanosomes (seeded at 10^4/ml) in 100 μl of a 96-well plate received varying amounts of Tyrphostin A47 (Sigma). Parasites were counted with a haemocytometer after 48 hours in culture. Data are means of triplicate determinations, they are representative of three independent trials. Blood stream form of T. brucei were used for these studies since that stage of the parasite causes disease in humans. Inhibitory concentration 50 (IC50) is the drug concentration which reduces the growth rate by 50%. Minimum inhibitory concentration (MIC) is the lowest concentration which killed all the parasites.
T. brucei strain 427 was cultured axenically and seeded at 10^4 cells/ml in 200 μl of medium a 96-well plate. Tyrphostin AG1478 (Sigma) (Zhu et al., 2001, Cancer Lett; 169:27-32; Shushan et al., 2004, Hum Reprod; 19:1957-1967) was added to the stated final concentrations, cells were incubated at 37° C. for 40 hours, and parasites were counted with a haemocytometer. Data are mean values representative of two independent trials each of which was performed in triplicate. T. brucei replicates every 8-10 hours.
The 4-anilinoquinazoline canertinib (also referred to as C1-1033) is an inhibitor of EGFR kinase (Dewji, 2004, J Chemotherapy; 16(Suppl 4):44-48; Hamid, 2004, J Am Pharm Assoc; 44:52-58). To test the trypanocidal activity of canertinib, culture of blood stream T. brucei strain 427 was initiated in 24-well plates at 10^4 cells/ml (in 500 μl of medium (Hirumi and Hirumi, 1991, Parasitology; 102(Pt 2):225-236)). Canertinib (Heymach et al., 2006, Clin Cancer Res; 12:4441s) (provided by Pfizer) was added to the stated final concentrations, and cells were incubated at 37° C. for 40 hours. Control cells received an equal volume of solvent (DMSO). Parasites were counted with a haemocytometer. Data plotted are mean values of quadruplicate determinations from one of three independent trials that produced similar results.
This example also determined that erlotinib (TARCEVA), a 4-anilinoquinazoline tyrosine kinase inhibitor is trypanocidal. erlotinib (TARCEVA), like canertinib, is an inhibitor of EGFR kinase (Bulgaru et al., 2003, Expert Rev Anticancer Ther; 3(3):269-79; Akita and Sliwkowski, 2003, Semin Oncol; 30(3 Suppl 7):15-24). The culture of blood stream T. brucei strain 427 was initiated in 24-well plates at 10^4 cells/ml in 500 μl of medium (Hirumi and Hirumi, 1991, Parasitology; 102 Pt 2:225-236). Erlotinib (TARCEVA) (provided by Genentech/OSI), was added to the stated final concentrations shown in FIG. 4, and cells were incubated at 37° C. for 40 hours.
This example presents data showing sunitinib and axitinib (both provided by Pfizer) are trypanocidal. Sunitinib (also known as SU11248 and marketed under the trade name SUTENT) inhibits VEGFR, PDGF, and c-Kit kinases (reviewed in Steeghs et al., 2007, Ann Surg Oncol; 14(2):942-53) and is approved by the Food and Drug Administration for treatment of renal cell carcinoma. […] Therefore, this example tests whether sunitinib (SUTENT) compromised T. brucei viability. To blood stream form T. brucei 427 (seeded at 10^4 cells/ml in 500 μl of medium) sunitinib (SUTENT) (Abrams et al., 2003, Mol Cancer Ther; 2:471-478; Mendel et al., 2003, Clin Cancer Res; 9:327-337) was added to the stated final concentrations and cells were incubated at 37° C. for 40 hours. Parasites were counted with a haemocytometer. Data plotted are mean values of quadruplicate determinations from a representative experiment.

For series [2] the following is noted: cited from earlier work.
Where [3] appears, read: Trypanosoma brucei, blood stream T. brucei strain 427 seeded at 10^4 cells/ml, 37° C. for 40 hours, read-out: IC50.

For the compound `CCN(CC)CCNC(=O)c1c(C)[nH]c(/C=C2\C(=O)Nc3ccc(F)cc32)c1C` [SUTENT, N-[2-(diethylamino)ethyl]-5-[(Z)-(5-fluoro-1,2-dihydro-2-oxo-3H-indol-3-ylidine)methyl]-2,4-dimethyl-1H-pyrrole-3-carboxamide], the “trypanocidal effect on T. brucei (in words)” value in series [1] (blood stream form T. brucei 427, 37° C. for 40 hours) is on record as “kills T. brucei at low micromolar levels”.
On to `N#C/C(=C\c1ccc(O)c(O)c1)C(N)=S` [Tyrphostin A47], for which the IC50 in series [1] (blood stream form T. brucei seeded at 10^4/ml, 96-well plate, counted after 48 hours, read-out: IC50 (drug concentration which reduces the growth rate by 50%)) lay within 1 to 5 µM.
In the case of `COc1cc2ncnc(Nc3cccc(Cl)c3)c2cc1OC` [Tyrphostin AG1478], in series [1] (blood stream T. brucei strain 427 seeded at 10^4 cells/ml, 37° C. for 40 hours, read-out: IC50), the IC50 was in the range of 2.5 to 5 µM.
Consider `C=CC(=O)Nc1cc2c(Nc3ccc(F)c(Cl)c3)ncnc2cc1OCCCN1CCOCC1` [canertinib, N-[−4-[(3-chloro-4-fluorophenyl)amino]-7-[3-(4-morpholinyl)propoxy]-6-quinazolinyl]-2-propenamide], for which, in series [1] (setting [3]), the IC50 turned out to be 1 µM. Besides, the “concentration at which all parasites were killed / no parasites survived” value in series [1] is recorded as “Above 4 μM”.
On to `C#Cc1cccc(Nc2ncnc3cc(OCCOC)c(OCCOC)cc23)c1` [erlotinib, N-(3-ethynylphenyl)-6,7-bis(2-methoxyethoxy)quinazolin-4-amine], for which the IC50 in series [1] (setting [3]) is approximately 1.7 µM. Further, in series [1], the “concentration at which all parasites were killed / no parasites survived” value was 10 µM. Further, the plasma concentration is 60 µM in series [2] (human patients receiving a cycle of 150 mg/day) and 2 µM in series [2] (single dose).
